Experimental data published in PubChem BioAssay AID1963423 (Molecular Pharmacology Branch, DTP, NCI, 2024).
Values joined by “and” are separate entries in the source; they are usually repeats but may differ in a detail not shown here. Equal values may be shown once.

System: 439559-082-T-J2-PDC complex spheroid growth
Assay: Anticancer human tumor 439559-082-T-J2-PDC patient-derived colon adenocarcinoma cell line growth inhibition [Asc]
Conditions: for viability, T/C: stronger effect = lower value
Outline: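 Complex spheroids combining tumor cells with HUVEC endothelial cells and human MSCs, at 37 degrees C, 5% CO2; agents tested alone or combined, half-log dilutions from at or near clinical Cmax, or 10 microM if Cmax unknown.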

[1] = curve of first compound, second compound 0.1 µM
[2] = curve of first compound, second compound 0.316 µM
[3] = curve of first compound, second compound 1 µM
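Further: spheroids exposed to agents for 7 days starting day 3 after seeding.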
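Wherever viability, T/C is given: percent of DMSO vehicle control viability with 100% = vehicle.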

In the case of `O=C(c1cc(Cc2n[nH]c(=O)c3ccccc23)ccc1F)N1CCN(C(=O)C2CC2)CC1` + CNC(C)C(=O)NC1CN(S(=O)(=O)c2cccc(S(=O)(=O)N3CCC4CCC(C(=O)NC(c5ccccc5)c5ccccc5)N4C(=O)C(NC(=O)C(C)NC)C3)c2)CCC2CCC(C(=O)NC(c3ccccc3)c3ccccc3)N2C1=O, the IC50 (curve of first compound, second compound 0.00316 µM) is reported as 0.333 µM, the IC50 (curve of first compound, second compound 0.01 µM) is reported as greater than 10 µM and the IC50 (curve of first compound, second compound 0.0316 µM) is reported as greater than 10 µM. For the same compound, the IC50 [1] was greater than 10 µM, the IC50 [2] was greater than 10 µM and the IC50 [3] was greater than 10 µM. The viability, T/C (second compound 0.00316 µM, first compound 0.0316 µM) was 54.7%, the viability, T/C (second compound 0.00316 µM, first compound 0.1 µM) was 47.2% and the viability, T/C (second compound 0.00316 µM, first compound 0.316 µM) was 49.1%. It also gave a viability, T/C (second compound 0.00316 µM, first compound 1 µM) of 49.9%, a viability, T/C (second compound 0.00316 µM, first compound 3.16 µM) of 40.7% and a viability, T/C (second compound 0.00316 µM, first compound 10 µM) of 28.4%. It also gave a viability, T/C (second compound 0.01 µM, first compound 0.0316 µM) of 94.2%, a viability, T/C (second compound 0.01 µM, first compound 0.1 µM) of 86.3% and a viability, T/C (second compound 0.01 µM, first compound 0.316 µM) of 93.2%. It also gave a viability, T/C (second compound 0.01 µM, first compound 1 µM) of 96%, a viability, T/C (second compound 0.01 µM, first compound 3.16 µM) of 113% and a viability, T/C (second compound 0.01 µM, first compound 10 µM) of 104%. It also gave a viability, T/C (second compound 0.0316 µM, first compound 0.0316 µM) of 103%, a viability, T/C (second compound 0.0316 µM, first compound 0.1 µM) of 96.2% and a viability, T/C (second compound 0.0316 µM, first compound 0.316 µM) of 108%. The viability, T/C (second compound 0.0316 µM, first compound 1 µM) was 99.6%, the viability, T/C (second compound 0.0316 µM, first compound 3.16 µM) was 101% and the viability, T/C (second compound 0.0316 µM, first compound 10 µM) was 89.8%. For the same compound, the viability, T/C (second compound 0.1 µM, first compound 0.0316 µM) was 99.8%, the viability, T/C (second compound 0.1 µM, first compound 0.1 µM) was 101% and the viability, T/C (second compound 0.1 µM, first compound 0.316 µM) was 99.2%. It also gave a viability, T/C (second compound 0.1 µM, first compound 1 µM) of 96.5%, a viability, T/C (second compound 0.1 µM, first compound 3.16 µM) of 99.2% and a viability, T/C (second compound 0.1 µM, first compound 10 µM) of 102%. For the same compound, the viability, T/C (second compound 0.316 µM, first compound 0.0316 µM) was 105%, the viability, T/C (second compound 0.316 µM, first compound 0.1 µM) was 103% and the viability, T/C (second compound 0.316 µM, first compound 0.316 µM) was 102%. The viability, T/C (second compound 0.316 µM, first compound 1 µM) was 94.8%, the viability, T/C (second compound 0.316 µM, first compound 3.16 µM) was 99% and the viability, T/C (second compound 0.316 µM, first compound 10 µM) was 91.1%. The viability, T/C (second compound 1 µM, first compound 0.0316 µM) was 81.9%, the viability, T/C (second compound 1 µM, first compound 0.1 µM) was 78.3% and the viability, T/C (second compound 1 µM, first compound 0.316 µM) was 93.5%. The viability, T/C (second compound 1 µM, first compound 1 µM) was 85.1%, the viability, T/C (second compound 1 µM, first compound 3.16 µM) was 95.7% and the viability, T/C (second compound 1 µM, first compound 10 µM) was 65.4%.

For `Cc1nc(N2CCC3(CC2)COC(C)C3N)c(CO)nc1Sc1ccnc(N)c1Cl` (centres undefined) + Cc1c(S(C)(=O)=O)c(-c2cc(F)cc(N3CCN(c4ccc(NS(=O)(=O)c5ccc(NC(CCN6CCC(C(=O)OCCCP(=O)(O)O)CC6)CSc6ccccc6)c(S(=O)(=O)C(F)(F)F)c5)cc4)CC3)c2)c(-c2ccc(Cl)cc2)n1C(C)C, the IC50 [1] was greater than 3 µM, the IC50 [2] was greater than 3 µM and the IC50 [3] was greater than 3 µM. For the same compound, the IC50 (curve of first compound, second compound 3.16 µM) was greater than 3 µM, the IC50 (curve of first compound, second compound 10 µM) was 2.75 µM and the viability, T/C (second compound 0.1 µM, first compound 0.00949 µM) was 109%. The viability, T/C (second compound 0.1 µM, first compound 0.03 µM) was 115%, the viability, T/C (second compound 0.1 µM, first compound 0.0949 µM) was 100% and the viability, T/C (second compound 0.1 µM, first compound 0.3 µM) was 82.6%. It also gave a viability, T/C (second compound 0.1 µM, first compound 0.949 µM) of 86.5%, a viability, T/C (second compound 0.1 µM, first compound 3 µM) of 73.4% and a viability, T/C (second compound 0.316 µM, first compound 0.00949 µM) of 96.4%. It also gave a viability, T/C (second compound 0.316 µM, first compound 0.03 µM) of 107%, a viability, T/C (second compound 0.316 µM, first compound 0.0949 µM) of 103% and a viability, T/C (second compound 0.316 µM, first compound 0.3 µM) of 84.5%. The viability, T/C (second compound 0.316 µM, first compound 0.949 µM) was 77.9%, the viability, T/C (second compound 0.316 µM, first compound 3 µM) was 72.4% and the viability, T/C (second compound 1 µM, first compound 0.00949 µM) was 89.5%. It also gave a viability, T/C (second compound 1 µM, first compound 0.03 µM) of 97.5%, a viability, T/C (second compound 1 µM, first compound 0.0949 µM) of 98.2% and a viability, T/C (second compound 1 µM, first compound 0.3 µM) of 76.4%. It also gave a viability, T/C (second compound 1 µM, first compound 0.949 µM) of 63%, a viability, T/C (second compound 1 µM, first compound 3 µM) of 70.4% and a viability, T/C (second compound 3.16 µM, first compound 0.00949 µM) of 84%. The viability, T/C (second compound 3.16 µM, first compound 0.03 µM) was 95.7%, the viability, T/C (second compound 3.16 µM, first compound 0.0949 µM) was 92.1% and the viability, T/C (second compound 3.16 µM, first compound 0.3 µM) was 63.6%. For the same compound, the viability, T/C (second compound 3.16 µM, first compound 0.949 µM) was 65.5%, the viability, T/C (second compound 3.16 µM, first compound 3 µM) was 56.7% and the viability, T/C (second compound 10 µM, first compound 0.00949 µM) was 74.3%. The viability, T/C (second compound 10 µM, first compound 0.03 µM) was 75%, the viability, T/C (second compound 10 µM, first compound 0.0949 µM) was 72.7% and the viability, T/C (second compound 10 µM, first compound 0.3 µM) was 60.2%. The viability, T/C (second compound 10 µM, first compound 0.949 µM) was 60.3% and the viability, T/C (second compound 10 µM, first compound 3 µM) was 49.1%.

`C=C(F)C(=O)N1CCN(c2nc(OCC3CCCN3C)nc3c2CCN(c2cccc4cccc(Cl)c24)C3)CC1CC#N` (centres undefined) + CCN1C(C(=O)NC23CCC(C(=O)O)(CC2)CC3)C(c2cccc(Cl)c2F)C2(C(=O)Nc3cc(Cl)ccc32)C12CCCCC2 was tested, and the IC50 (curve of first compound, second compound 0.03 µM) was 6.63 µM, the IC50 (curve of first compound, second compound 0.0949 µM) was 5.8 µM and the IC50 (curve of first compound, second compound 0.3 µM) was 6.3 µM. For the same compound, the IC50 (curve of first compound, second compound 0.949 µM) was 6.35 µM, the IC50 (curve of first compound, second compound 3 µM) was 5.12 µM and the viability, T/C (second compound 0.03 µM, first compound 0.0316 µM) was 102%. For the same compound, the viability, T/C (second compound 0.03 µM, first compound 0.1 µM) was 96.2%, the viability, T/C (second compound 0.03 µM, first compound 0.316 µM) was 116% and the viability, T/C (second compound 0.03 µM, first compound 1 µM) was 93%. For the same compound, the viability, T/C (second compound 0.03 µM, first compound 3.16 µM) was 92.1%, the viability, T/C (second compound 0.03 µM, first compound 10 µM) was 27% and the viability, T/C (second compound 0.0949 µM, first compound 0.0316 µM) was 109%. The viability, T/C (second compound 0.0949 µM, first compound 0.1 µM) was 112%, the viability, T/C (second compound 0.0949 µM, first compound 0.316 µM) was 107% and the viability, T/C (second compound 0.0949 µM, first compound 1 µM) was 96.7%. It also gave a viability, T/C (second compound 0.0949 µM, first compound 3.16 µM) of 82.8%, a viability, T/C (second compound 0.0949 µM, first compound 10 µM) of 22.3% and a viability, T/C (second compound 0.3 µM, first compound 0.0316 µM) of 92%. For the same compound, the viability, T/C (second compound 0.3 µM, first compound 0.1 µM) was 113%, the viability, T/C (second compound 0.3 µM, first compound 0.316 µM) was 103% and the viability, T/C (second compound 0.3 µM, first compound 1 µM) was 90.5%. The viability, T/C (second compound 0.3 µM, first compound 3.16 µM) was 85%, the viability, T/C (second compound 0.3 µM, first compound 10 µM) was 27.5% and the viability, T/C (second compound 0.949 µM, first compound 0.0316 µM) was 104%. For the same compound, the viability, T/C (second compound 0.949 µM, first compound 0.1 µM) was 103%, the viability, T/C (second compound 0.949 µM, first compound 0.316 µM) was 105% and the viability, T/C (second compound 0.949 µM, first compound 1 µM) was 98.2%. It also gave a viability, T/C (second compound 0.949 µM, first compound 3.16 µM) of 85.7%, a viability, T/C (second compound 0.949 µM, first compound 10 µM) of 26.7% and a viability, T/C (second compound 3 µM, first compound 0.0316 µM) of 88.3%. For the same compound, the viability, T/C (second compound 3 µM, first compound 0.1 µM) was 102%, the viability, T/C (second compound 3 µM, first compound 0.316 µM) was 96.3% and the viability, T/C (second compound 3 µM, first compound 1 µM) was 84.5%. It also gave a viability, T/C (second compound 3 µM, first compound 3.16 µM) of 80.2% and a viability, T/C (second compound 3 µM, first compound 10 µM) of 10.2%.

`Cn1ncnc1[C@H]1c2n[nH]c(=O)c3cc(F)cc(c23)N[C@@H]1c1ccc(F)cc1` was tested, and the viability, T/C (compound 0.000316 µM) was 104% and 97.5% and 103%, the viability, T/C (compound 0.001 µM) was 108% and 97.8% and 112% and the viability, T/C (compound 0.00316 µM) was 97.6% and 103% and 92%. The viability, T/C (compound 0.01 µM) was 95.5% and 95.2% and 97.6%, the viability, T/C (compound 0.0316 µM) was 102% and 105% and 107% and the viability, T/C (compound 0.1 µM) was 98.1% and 92.3% and 98.5%. It also gave an IC50 (curve of compound) greater than 0.1 µM.
